Data on 14 compounds can be found in ChEMBL document CHEMBL1131274, “N6-(5,6-epoxynorbornyl)adenosine analogs as A1 adenosine agonists” (Bioorg Med Chem Lett, 1998).

Structures are written as SMILES.

The nature of the experiment: Potency to inhibit A1-adenosine receptor mediated cAMP accumulation in DDT1 MF-2 cells. The class given is functional, cell-based. To be noted: Mesocricetus auratus. On the technique in general: cAMP levels reflect the balance of adenylyl cyclase and phosphodiesterase activity.

The EC50 is the midpoint of the concentration-response curve. Read a low EC50 as a more potent agent. On to `CCNC(=O)[C@H]1OC(n2cnc3c(NC4CC=CCC4)ncnc32)[C@H](O)[C@@H]1O` (some centres undefined), for which the response was half-maximal at 0.0011 µM (EC50).

The compound `CCNC(=O)[C@H]1OC(n2cnc3c(NCC4CC5CC4C4OC54)ncnc32)[C@H](O)[C@@H]1O` (some centres undefined) showed a half-maximal effective concentration (EC50) of 0.159 µM.

Compound `CCNC(=O)[C@H]1OC(n2cnc3c(NC4CC5CC4C4OC54)[n+]([O-])cnc32)[C@H](O)[C@@H]1O` (some centres undefined) yielded an EC50 of 0.217 µM.

As to `CCNC(=O)[C@H]1OC(n2cnc3c(NCC4CC5C=CC4C5)ncnc32)[C@H](O)[C@@H]1O` (some centres undefined), a half-maximal effect (EC50) was put at 0.035 µM.

`CCNC(=O)[C@H]1OC(n2cnc3c(NCCN4CCOCC4)ncnc32)[C@H](O)[C@@H]1O` (some centres undefined) yielded an EC50 of 0.018 µM.

Regarding `OC[C@H]1OC(n2cnc3c(NCC4CCCCO4)ncnc32)[C@H](O)[C@@H]1O` (some centres undefined), the EC50 was 3.09 µM.

In turn, `CCNC(=O)[C@H]1OC(n2cnc3c(NCc4ccco4)ncnc32)[C@H](O)[C@@H]1O` (some centres undefined) came in with an EC50 of 0.262 µM.

`OC[C@H]1OC(n2cnc3c(NC4CC=CCC4)ncnc32)[C@H](O)[C@@H]1O` (some centres undefined) returned an EC50 of 0.0072 µM.

`OC[C@H]1OC(n2cnc3c(NC4CCC5OC5C4)ncnc32)[C@H](O)[C@@H]1O` (some centres undefined) displayed a concentration giving a half-maximal response (EC50) of 0.037 µM.

For the compound `OC[C@H]1OC(n2cnc3c(NCC4CC5C=CC4C5)ncnc32)[C@H](O)[C@@H]1O` (some centres undefined), the concentration giving a half-maximal response (EC50) is 0.188 µM.

Consider `CCNC(=O)[C@H]1OC(n2cnc3c(NC4CCC5OC5C4)ncnc32)[C@H](O)[C@@H]1O` (some centres undefined), for which the EC50 stood at 0.0059 µM.

For `OC[C@H]1OC(n2cnc3c(NCC4CC5CC4C4OC54)ncnc32)[C@H](O)[C@@H]1O` (some centres undefined), a half-maximal response (EC50) required 0.537 µM.

`CCNC(=O)[C@H]1OC(n2cnc3c(NCC4CCCCO4)ncnc32)[C@H](O)[C@@H]1O` (some centres undefined): the concentration giving a half-maximal response (EC50) amounted to 0.641 µM.

Take `OC[C@H]1O[C@@H](n2cnc3c(NC4CCCC4)ncnc32)[C@H](O)[C@@H]1O` [N6-CYCLOPENTYLADENOSINE]: the concentration for a half-maximal effect (EC50) was 0.0028 µM.
